Assay results reported in patent US20260265202A1, “N-(N-AMINOALKYL)[…] SERIES OF CHLORIDE-SENSITIVE FLUOROPHORES AND METHODS OF USE THEREOF” (The General Hospital Corporation, priority 2022, published 2026).

Tests used:
[1] = Spectrophotometry and two-photon excitation scans; format: physicochemical
Method: Spectrophotometry: Absorption readings were obtained using a Nanodrop One system (Thermo Scientific), while excitation and emission scans were obtained using a Spectramax M2 dual grating system (Molecular Devices). Intensity scans relative to excitation wavelength obtained on either of our custom two-photon excitation (2PE) rigs were analyzed with ImageJ and plotted using Matlab (v2022b).

[2] = Toxicity of probe (stated key feature)

fluorescence emission maximum ([1]; excitation at 360 nm)	excitation wavelength using 2PE [1] [nm]	SMILES	toxicity [2]
approximately 420 nm	–	NCCCC[n+]1cc2ccccc2c2ccccc21 [ABP, N-(4-aminobutyl)phenantridinium]	absence of toxicity
–	710	O=S(=O)(O)CCCC[n+]1ccc2ccccc2c1 [NSBQ, N-4(sulfobutyl)isoquinolinium, reference compound]	–
